Data on ten compounds can be found in patent publication US4564476A, “Aryl fatty acid leukotriene synthesis inhibitors” (McNeilab, Inc., priority 1984, dated 1986).

Test [1] concerns guinea pig lung parenchymal tissue. Put plainly: Immunologically Mediated Contraction of the Parenchymal Strip (IMCPS). On the set-up: species or system guinea pig (male Hartley strain). To be noted: Cavia porcellus, egg albumin induced contraction of sensitized guinea pig lung parenchymal strip, with chlorpheniramine 10.0 μM and indomethacin 100.0 μM, relative to control tissue, read-out: IMCPS % inhib. 100 μM. The protocol:
(a) Immunologically Mediated Contraction of the Parenchymal Strip (IMCPS)
It is a modification of the procedure published by K. Forsberg and L. Sorenby in Agents and Actions, Vol. 9 pp. 364-368 (1978). In this test, male Hartley strain guinea pigs weighing 400 to 600 g were sensitized by subcutaneous administration of chicken egg albumin (Sigma A-5503, 1.0 mg, 0.5% solution) and bordetella pertussis, 11×10^9 cells (Massachusetts Public Health Biological Labs) 4 to 8 weeks prior to the experiment. The animals were sacrificed, the heart and lungs were removed en bloc and placed in Krebs solution at room temperature. Lung strips (2.5 cm in length) were cut from the peripheral edge of each lobe. Two strips were removed from each animal and were trimmed to be of equal length. Each strip was suspended in an isolated organ bath (10.0 ml) containing oxygenated Krebs buffer solution at 37.5° C. then attached to a force displacement transducer (Grass FT03) and placed under an initial tension of 1.0 g. The tissues were allowed to equilibrate for 45-60 minutes, during which the bathing solution was changed several times. At the end of the equilibration period, chlorpheniramine (10.0 μM) and indomethacin (100.0 μM) were added to eliminate the contribution of histamine and prostaglandins to the contractile response. The two tissues from each animal were matched so that one tissue served as a control, and the test drug dissolved in DMSO was added to the bath containing the other tissue at a final concentration of 100 μM. After 30 minutes, egg albumin was added to each bath and the contractile response was measured as milligrams of tension developed as recorded on a Grass Model 7D polygraph.

For test [2], the system named is lipoxygenase metabolites released or generated from human granulocyte cells. Put plainly: Human Granulocyte Assay for Lipoxygenase Products (HGALP). It is filed as cell-based. To be noted: [3H]-arachidonic acid prelabeled human granulocytes, 10 μM ionophore A23187 challenge, 14 μM indomethacin. The method, then: (b) Human Granulocyte Assay for Lipoxygenase Products (HGALP)
This test is a measurement of the inhibition of the synthesis or release of [3H]-labeled lipoxygenase metabolites released or generated from human granulocyte cells that are prelabeled with [3H]-arachidonic acid. These metabolites include the leukotrienes (e.g., LTB4) which are potent mediators of inflammation and allergy. In this test, a granulocyte enriched fraction is prepared from freshly drawn human blood (50 ml/donor) by standard techniques involving unit gravity separation on ficoll hypaque. Cells are prelabeled with [3H]-arachidonic acid (20 μCi in 2 ml cell suspension) during a 30 min. incubation at 37° C. After washing out unincorporated label, the radiolabeled cells are brought up in incubation buffer (Minimum Essential Medium containing 14 μM indomethacin) to a 10^7 cell/ml concentration. Cell suspensions (1 ml/sample) are preincubated for 5 min. in the presence or absence of test drugs delivered in 5 μl dimethylsulfoxide (DMSO). Cell suspensions are challenged with 10 μM ionophore A23187 to activate the calcium-dependent metabolism of [3H]-arachidonic acid. After a 5 min. incubation at 37° C., incubations are terminated by the addition of 1 ml ice cold phosphate buffered saline, and cells are pelleted by centrifugation. Supernatants are passed through C18 Sep Pak® cartridges which are then washed twice with 1 ml water. Lipoxygenase metabolites are eluted with two 1 ml volumes of methanol. Eluates are collected in scintillation vials and counted in Aqueous Counting Scintillant (ACS). Radioactivity eluted with methanol is a measure of lipoxygenase metabolites. Values are normalized to vehicle (5 μl DMSO) treated controls and expressed as percent inhibition. Triplicate determinations at each drug concentration are analyzed as log-dose response curves by linear regression analysis from which IC50 values are derived.

Test [3] shares this test system. Described as above. It is filed as cell-based. To be noted: [3H]-arachidonic acid prelabeled human granulocytes, 10 μM ionophore A23187.

For `CC(C)(/C=C\CCCC(=O)O)COCc1ccccc1` [Example 1c, 7,7-Dimethyl-8-(phenylmethoxy)-5(Z)-octenoic Acid], in test [1], the inhibition at 100 µM is 79%.
Take `CC(C)(/C=C\CCCCO)COCc1ccccc1` [Example 4, 7,7-Dimethyl-8-(phenylmethoxy)-5(Z)-octenol]: the inhibition at 100 µM in test [1] turned out to be 38%. In addition, the IC50 in test [2] amounted to 17 µM.
The matching figures for `CN(C)C(=O)CCC/C=C\C(C)(C)COCc1ccccc1` [Example 2, N,N,7,7-Tetramethyl-8-(phenylmethoxy)-5(Z)-octenamide]: 19% and 42 µM.
Taken in the same sequence, the figures for `CC(C)(/C=C\CCCC(=O)O)COCc1ccc(O)cc1` [Example 7, 7,7-Dimethyl-8-(4-hydroxyphenylmethoxy)-5(Z) Octenoic Acid] were 4% and 255 µM.
For `CC(C)(/C=C\CCCC(=O)O)COCC=Cc1ccccc1` [Example 10c, 7,7-Dimethyl-8-(3-phenyl-2-propenoxy)-5(Z) octenoic Acid], the inhibition at 100 µM in test [1] worked out at 44%; in test [3], 5%.
In the case of `CCCC=Cc1ccccc1COCC(C)(C)/C=C\CCCC(=O)O` [Example 11g, 7,7-Dimethyl-8-[2(1-pentenyl)phenylmethoxy]-5(Z)octenoic acid], in test [1], the inhibition at 100 µM was 40%. Besides, the IC50 in test [2] was found to be 96 µM.
`CC(C)(C=Cc1ccc(Cl)cc1)/C=C\CCCC(=O)O` [Example 9, 9-(4-Chlorophenyl)-7,7-dimethyl-5(Z),8-nonadienoic acid]: in test [1], the inhibition at 100 µM was 76%. For the same compound, the IC50 in test [2] amounted to 19 µM.
Consider `COc1ccc(COCC(C)(C)/C=C\CCCC(=O)O)cc1` [Example 5c, 7,7-Dimethyl-8-(4-methoxyphenylmethoxy)-5(Z)-octenoic Acid], for which the inhibition at 100 µM amounted to 31% in test [1] and 18% in test [3].
Take `COC(=O)CCC/C=C\C(C)(C)COCc1ccc(O)cc1` [Example 6, Methyl 7,7-dimethyl-8-(4-hydroxyphenylmethoxy)-5(Z)-octenoate]: the inhibition at 100 µM in test [1] turned out to be 49%. Moreover, the IC50 in test [2] was 39 µM.
With `COC(=O)CCC/C=C\C(C)(C)C=Cc1ccc(Cl)cc1` [Example 8c, Methyl 9-(4-chlorophenyl)-7,7-dimethyl-5(Z),8-nonadienoate], the inhibition at 100 µM in test [1] came out at 15%. Further, the IC50 in test [2] is 6.6 µM.
